This note sets out measurements from PubChem BioAssay AID330 (DTP/NCI, 2004).

Each structure is given as a SMILES string. Where “and” joins values, the source holds several entries; their conditions need not be identical. Identical values can stand only once. Inconclusive results and toxic doses are left out.

For the experiment, the system named is P388 leukemia ip, CD2F1 mice, survival T/C. The experiment is described as follows: NCI In Vivo Anticancer Drug Screen. Data for tumor model P388 Leukemia (intraperitoneal) in CD2F1 (CDF1) mice. The following applies: endpoint: median survival time, higher = longer survival. A digest of the protocol:
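Mice carrying the transplanted tumor received test compound or vehicle. Survival was recorded in each group, and the value is the treated-group measurement divided by that of the vehicle-treated control group.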

Where [1] appears, read: dose: 60.0 mg/kg/injection, schedule: Q01DX005 (ip), vehicle: saline with Tween-80.
Setting [2] is: dose: 120.0 mg/kg/injection, schedule: Q01DX005 (ip), vehicle: saline with Tween-80.
Where [3] appears, read: dose: 240.0 mg/kg/injection, schedule: Q01DX005 (ip), vehicle: saline with Tween-80.
Setting [4] is: dose: 50.0 mg/kg/injection, schedule: Q01DX009 (ip), vehicle: saline with Tween-80.
Setting [5] is: dose: 100.0 mg/kg/injection, schedule: Q01DX009 (ip), vehicle: saline with Tween-80.
The mark [6] stands for this setting: dose: 200.0 mg/kg/injection, schedule: Q01DX009 (ip), vehicle: saline with Tween-80.
The mark [7] stands for this setting: dose: 6.25 mg/kg/injection, schedule: Q01DX005 (ip), vehicle: saline with Tween-80.
The mark [8] stands for this setting: dose: 12.5 mg/kg/injection, schedule: Q01DX005 (ip), vehicle: saline with Tween-80.

Regarding `COC(=O)[C@@H]1c2cc3c(c(O)c2[C@@H](OC2OC(C)C(OC)C(C)(OC)C2OC)C[C@]1(C)O)C(=O)c1c(O)cc2c(c1C3=O)O[C@H]1O[C@]2(C)[C@H](O)[C@@H](N(C)C)[C@@H]1O` (stereo not given in full), the T/C is 120 % of control (dose: 0.12 mg/kg/injection, schedule: Q01DX009 (ip), vehicle: saline); 122 % of control (dose: 0.25 mg/kg/injection, schedule: Q01DX009 (ip), vehicle: other); 110 % of control (dose: 0.25 mg/kg/injection, schedule: Q01DX010 (ip), vehicle: saline); 116 % of control (dose: 0.25 mg/kg/injection, schedule: Q04DX003 (ip), vehicle: other); 117 % of control (dose: 0.25 mg/kg/injection, schedule: Q04DX003 (ip), vehicle: saline); 112 % of control (dose: 0.43 mg/kg/injection, schedule: Q04DX003 (ip), vehicle: water). Besides, the T/C reads like this: (dose: 0.5 mg/kg/injection, schedule: Q01DX009 (ip), vehicle: other) 118 % of control; (dose: 0.5 mg/kg/injection, schedule: Q01DX010 (ip), vehicle: saline) 105 % of control; (dose: 0.5 mg/kg/injection, schedule: Q04DX003 (ip), vehicle: other) 109 % of control; (dose: 0.52 mg/kg/injection, schedule: Q04DX003 (ip), vehicle: clinical formulation) 119 % of control; (dose: 0.72 mg/kg/injection, schedule: Q04DX003 (ip), vehicle: water) 115 % of control; (dose: 0.86 mg/kg/injection, schedule: Q04DX003 (ip), vehicle: clinical formulation) 121 % of control. Also, the T/C was 91 % of control (dose: 1.0 mg/kg/injection, schedule: Q01DX009 (ip), vehicle: other); 86 % of control (dose: 1.0 mg/kg/injection, schedule: Q01DX009 (ip), vehicle: saline + alcohol); 150 % of control (dose: 1.0 mg/kg/injection, schedule: Q01DX009 (ip), vehicle: saline); 100 % of control (dose: 1.0 mg/kg/injection, schedule: Q01DX010 (ip), vehicle: saline); 114 % of control (dose: 1.44 mg/kg/injection, schedule: Q04DX003 (ip), vehicle: clinical formulation); 107 % of control (dose: 2.4 mg/kg/injection, schedule: Q04DX003 (ip), vehicle: clinical formulation). For the same compound, the T/C by setting is: (dose: 3.33 mg/kg/injection, schedule: Q04DX003 (ip), vehicle: water) 120 % of control; (dose: 125.0 micrograms/kg/injection, schedule: Q01DX009 (ip), vehicle: other) 111 % of control; (dose: 375.0 micrograms/kg/injection, schedule: Q04DX003 (ip), vehicle: saline) 121 % of control; (dose: 500.0 micrograms/kg/injection, schedule: Q04DX003 (ip), vehicle: saline) 118 % of control; (dose: 1000.0 micrograms/kg/injection, schedule: Q01DX009 (ip), vehicle: saline) 114 % of control; (dose: 1500.0 micrograms/kg/injection, schedule: Q01DX009 (ip), vehicle: saline) 92 % of control. Besides, the T/C (dose: 3000.0 micrograms/kg/injection, schedule: Q04DX003 (ip), vehicle: saline) was 91 % of control.
Regarding `CCCCCCCCCCCCCCCCN1CCSCC1`, the T/C runs as follows: (dose: 12.5 mg/kg/injection, schedule: Q01DX009 (ip), vehicle: saline) 91 % of control; (dose: 25.0 mg/kg/injection, schedule: Q01DX009 (ip), vehicle: saline) 97 % of control; (dose: 50.0 mg/kg/injection, schedule: Q01DX009 (ip), vehicle: saline) 98 % of control and 100 % of control; (dose: 100.0 mg/kg/injection, schedule: Q01DX009 (ip), vehicle: saline) 92 % of control.
Regarding `COc1cc(/C=C2/Nc3ccc(Cl)cc3NC2=O)ccc1O`, the T/C reads like this: under setting [1], 93 % of control; under setting [2], 98 % of control; under setting [3], 96 % of control.
As to `[CH3][Sn]([CH3])([N]=C=S)[N]=C=S.c1ccc(-c2nnc(-c3ccccn3)nc2-c2ccccc2)cc1`, the T/C by setting is: (dose: 60.0 mg/kg/injection, schedule: Q01DX005 (ip), vehicle: Klucel (hydroxypropylcellulose) (HPC)) 100 % of control; (dose: 120.0 mg/kg/injection, schedule: Q01DX005 (ip), vehicle: Klucel (hydroxypropylcellulose) (HPC)) 104 % of control.
Turning to `C[C@@H]1CC[C@@]2(OC1)O[C@H]1C[C@H]3[C@@H]4CC(=O)C5=CC(=O)CC[C@]5(C)[C@H]4CC[C@]3(C)[C@H]1[C@@H]2C`, the T/C is 101 % of control (dose: 2.25 mg/kg/injection, schedule: Q01DX005 (ip), vehicle: Klucel (hydroxypropylcellulose) (HPC)); 100 % of control (dose: 4.5 mg/kg/injection, schedule: Q01DX005 (ip), vehicle: Klucel (hydroxypropylcellulose) (HPC)); 97 % of control (dose: 9.0 mg/kg/injection, schedule: Q01DX005 (ip), vehicle: Klucel (hydroxypropylcellulose) (HPC)); 89 % of control (dose: 18.0 mg/kg/injection, schedule: Q01DX005 (ip), vehicle: Klucel (hydroxypropylcellulose) (HPC)); 88 % of control (dose: 36.0 mg/kg/injection, schedule: Q01DX005 (ip), vehicle: Klucel (hydroxypropylcellulose) (HPC)).
For `CSCCC(N)[P+](=O)O` (stereo not given), the T/C runs as follows: (dose: 50.0 mg/kg/injection, schedule: Q01DX005 (ip), vehicle: saline) 99 % of control; (dose: 100.0 mg/kg/injection, schedule: Q01DX005 (ip), vehicle: saline) 95 % of control; (dose: 200.0 mg/kg/injection, schedule: Q01DX005 (ip), vehicle: saline) 99 % of control.
For `C(=N/c1ccccn1)/c1ccc(/C=N\c2ccccn2)cc1`, the T/C is 108 % of control under setting [4]; 100 % of control under setting [5]; 106 % of control under setting [6]; 116 % of control (dose: 400.0 mg/kg/injection, schedule: Q01DX009 (ip), vehicle: saline with Tween-80).
With `CC(C)COC(=O)CN(CC(=O)OCC(C)C)c1ccccc1`, the T/C is 109 % of control (dose: 100.0 mg/kg/injection, schedule: Q04DX003 (ip), vehicle: saline with Tween-80); 104 % of control (dose: 200.0 mg/kg/injection, schedule: Q04DX003 (ip), vehicle: saline with Tween-80); 113 % of control (dose: 400.0 mg/kg/injection, schedule: Q04DX003 (ip), vehicle: saline with Tween-80).
`COc1cc2c[n+](C)c3c4cc(OC)c(OC)cc4c(OCc4ccccc4)cc3c2cc1OC`: the T/C is, setting by setting: under setting [7], 123 % of control and 124 % of control; under setting [8], 124 % of control.
As for `O=c1ccc2cc3ccoc3c(OCCCCCCCCCCCCOc3c4occc4cc4ccc(=O)oc34)c2o1`, the T/C is 100 % of control under setting [7]; 100 % of control under setting [8]; 88 % of control (dose: 25.0 mg/kg/injection, schedule: Q01DX005 (ip), vehicle: saline with Tween-80).
On to `Cc1nc2ccccc2c(C(=O)NO)[n+]1[O-]`, for which the T/C was 104 % of control under setting [4], 100 % of control under setting [5] and 103 % of control under setting [6].
As for `Cc1ccc(S(=O)(=O)NN=C2[C@H]3CC=CC[C@H]3C(=NNS(=O)(=O)c3ccc(C)cc3)[C@@H]3CC=CC[C@H]23)cc1`, the T/C by setting is: (dose: 50.0 mg/kg/injection, schedule: Q01DX005 (ip), vehicle: saline with Tween-80) 90 % of control; (dose: 100.0 mg/kg/injection, schedule: Q01DX005 (ip), vehicle: saline with Tween-80) 87 % of control; (dose: 200.0 mg/kg/injection, schedule: Q01DX005 (ip), vehicle: saline with Tween-80) 103 % of control.
For `O=C(Nc1cccc2ccccc12)OCCN=Cc1ccccc1O.O=C(Nc1cccc2ccccc12)OCCN=Cc1ccccc1O.[Cu]`, the T/C is, setting by setting: (dose: 100.0 mg/kg/injection, schedule: Q04DX002 (ip), vehicle: saline with Tween-80) 94 % of control; (dose: 200.0 mg/kg/injection, schedule: Q04DX002 (ip), vehicle: saline with Tween-80) 94 % of control; (dose: 400.0 mg/kg/injection, schedule: Q04DX002 (ip), vehicle: saline with Tween-80) 107 % of control and 94 % of control.
`CC(=O)N[C@H]1CCC2[C@@H]3CCC4=CC(=O)NCC[C@]4(C)C3CC[C@@]21C` (stereo not given in full): the T/C by setting is: under setting [1], 95 % of control; under setting [2], 92 % of control; under setting [3], 94 % of control.
For `O=c1[nH]cnc2cc([N+](=O)[O-])ccc12`, the T/C is 101 % of control (dose: 12.0 mg/kg/injection, schedule: Q01DX005 (ip), vehicle: Klucel (hydroxypropylcellulose) (HPC)); 101 % of control (dose: 25.0 mg/kg/injection, schedule: Q01DX005 (ip), vehicle: Klucel (hydroxypropylcellulose) (HPC)); 101 % of control and 106 % of control (dose: 50.0 mg/kg/injection, schedule: Q01DX005 (ip), vehicle: Klucel (hydroxypropylcellulose) (HPC)); 111 % of control (dose: 100.0 mg/kg/injection, schedule: Q01DX005 (ip), vehicle: Klucel (hydroxypropylcellulose) (HPC)).
